Source: patent US10815230B2, “Casein kinase 1 delta inhibitor” (ELECTROPHORETICS LIMITED, priority 2015, dated 2020)

Columns and labels:
Assay in all cases: KINOMEscan binding assay
Conditions in all cases: read-out: % Ctrl @ 10000 nM
[1] = target: S6K1 (Homo sapiens, UniProt P23443)
[2] = target: MTOR (Homo sapiens, UniProt P42345)
[3] = target: EGFR (Homo sapiens, UniProt P00533)
[4] = target: PIK3CA (I800L) (Homo sapiens, UniProt P42336, I800L)
[5] = target: ABL2 (Homo sapiens, UniProt P42684)
[6] = target: CDK5 (Homo sapiens, UniProt Q00535)
[7] = target: CDK3 (Homo sapiens, UniProt Q00526)
[8] = target: CAMK2G (Homo sapiens, UniProt Q13555)
[9] = target: CDK11 (Homo sapiens, UniProt Q9BWU1)
[10] = target: MERTK (Homo sapiens, UniProt Q12866)
[11] = target: EGFR (S752-I759del) (Homo sapiens, UniProt P00533, DEL752-759)
[12] = target: KIT (V559D, T670I) (Homo sapiens, UniProt P10721, T670I/V559D)
[13] = target: T1, ULK3 (Homo sapiens, UniProt Q6PHR2)
T1 construct: purchased DiscoveRx (KINOMEscan, LeadHunter Discovery services)

[14] = target: T2, LZK (Homo sapiens, UniProt O43283)
T2 construct: T7 phage fusion (most assays) or DNA label after HEK293 expression; purchased DiscoveRx (KINOMEscan, LeadHunter Discovery services); host or cells: T7 phage in E. coli (BL21-derived) or HEK293

[15] = target: ABL1 (Y253F) phosphorylated (Homo sapiens, UniProt P00519, Y253F)
[16] = target: CSNK1G1 (Homo sapiens, UniProt Q9HCP0)
[17] = target: BMPR1A (Homo sapiens, UniProt P36894)
[18] = target: CDK7 (Homo sapiens, UniProt P50613)
[19] = target: GCN2 (Kin.Dom.2, S808G) (Homo sapiens, UniProt Q9P2K8, S808G)
[20] = target: SRPK3 (Homo sapiens, UniProt Q9UPE1)
[21] = target: EPHA3 (Homo sapiens, UniProt P29320)
[22] = target: BUB1 (Homo sapiens, UniProt O43683)
[23] = target: NEK10 (Homo sapiens, UniProt Q6ZWH5)
[24] = target: IRAK4 (Homo sapiens, UniProt Q9NWZ3)
[25] = target: EPHB4 (Homo sapiens, UniProt P54760)
[26] = target: FAK (Homo sapiens, UniProt Q05397)
[27] = target: JAK1 (JH1domain-catalytic) (Homo sapiens, UniProt P23458)
[28] = target: PKN1 (Homo sapiens, UniProt Q16512)
[29] = target: SIK2 (Homo sapiens, UniProt Q9H0K1)
[30] = target: ITK (Homo sapiens, UniProt Q08881)
[31] = target: PRKCQ (Homo sapiens, UniProt Q04759)
[32] = target: MARK4 (Homo sapiens, UniProt Q96L34)
[33] = target: DCAMKL3 (Homo sapiens, UniProt Q9C098)
[34] = target: KIT (V559D, V654A) (Homo sapiens, UniProt P10721, V559D/V654A)
[35] = target: MLK3 (Homo sapiens, UniProt Q16584)
[36] = target: SRPK1 (Homo sapiens, UniProt Q96SB4)
[37] = target: T3, ZAP70 (Homo sapiens, UniProt P43403)
T3 construct: purchased DiscoveRx (KINOMEscan, LeadHunter Discovery services)

[38] = target: ASK2 (Homo sapiens, UniProt O95382)
[39] = target: MST1R (Homo sapiens, UniProt Q04912)
[40] = target: MRCKB (Homo sapiens, UniProt Q9Y5S2)
[41] = target: ACVRL1 (Homo sapiens, UniProt P37023)

Chain of ITK (Q08881 whole entry): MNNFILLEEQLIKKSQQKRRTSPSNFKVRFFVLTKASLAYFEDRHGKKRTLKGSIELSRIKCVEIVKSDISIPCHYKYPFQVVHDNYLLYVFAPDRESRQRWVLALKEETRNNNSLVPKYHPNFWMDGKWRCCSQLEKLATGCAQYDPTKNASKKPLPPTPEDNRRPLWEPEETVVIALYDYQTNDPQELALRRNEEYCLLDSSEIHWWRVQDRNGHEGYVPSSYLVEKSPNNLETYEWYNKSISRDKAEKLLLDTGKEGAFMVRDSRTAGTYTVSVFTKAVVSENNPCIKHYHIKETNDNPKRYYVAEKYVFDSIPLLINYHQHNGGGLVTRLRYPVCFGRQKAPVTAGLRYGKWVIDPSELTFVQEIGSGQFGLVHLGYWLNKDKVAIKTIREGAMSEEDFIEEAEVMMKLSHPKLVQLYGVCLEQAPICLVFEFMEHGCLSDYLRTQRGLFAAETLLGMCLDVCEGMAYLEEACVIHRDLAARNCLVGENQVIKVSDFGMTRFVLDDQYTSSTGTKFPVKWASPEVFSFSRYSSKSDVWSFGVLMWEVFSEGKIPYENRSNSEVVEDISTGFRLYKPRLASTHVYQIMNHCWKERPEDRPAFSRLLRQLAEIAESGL
Chain of SRPK1 (Q96SB4 whole entry): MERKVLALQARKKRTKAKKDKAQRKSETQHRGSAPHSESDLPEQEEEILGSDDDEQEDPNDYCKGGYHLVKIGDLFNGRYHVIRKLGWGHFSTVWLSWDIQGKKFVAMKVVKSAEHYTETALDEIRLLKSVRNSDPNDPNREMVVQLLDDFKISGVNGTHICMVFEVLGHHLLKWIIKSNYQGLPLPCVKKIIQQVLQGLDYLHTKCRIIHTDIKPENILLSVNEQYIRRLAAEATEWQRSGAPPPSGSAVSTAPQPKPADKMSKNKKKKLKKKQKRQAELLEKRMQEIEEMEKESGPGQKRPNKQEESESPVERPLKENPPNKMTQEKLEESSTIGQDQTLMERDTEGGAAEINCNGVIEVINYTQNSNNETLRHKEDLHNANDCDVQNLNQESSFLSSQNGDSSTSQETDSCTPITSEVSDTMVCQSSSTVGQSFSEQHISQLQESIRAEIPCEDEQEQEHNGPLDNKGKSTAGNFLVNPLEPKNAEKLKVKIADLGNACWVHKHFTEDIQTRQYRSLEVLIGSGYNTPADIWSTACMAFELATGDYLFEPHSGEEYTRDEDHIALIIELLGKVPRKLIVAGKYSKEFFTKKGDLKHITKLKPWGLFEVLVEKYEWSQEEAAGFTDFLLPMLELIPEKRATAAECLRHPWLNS
T3 sequence (P43403 whole entry): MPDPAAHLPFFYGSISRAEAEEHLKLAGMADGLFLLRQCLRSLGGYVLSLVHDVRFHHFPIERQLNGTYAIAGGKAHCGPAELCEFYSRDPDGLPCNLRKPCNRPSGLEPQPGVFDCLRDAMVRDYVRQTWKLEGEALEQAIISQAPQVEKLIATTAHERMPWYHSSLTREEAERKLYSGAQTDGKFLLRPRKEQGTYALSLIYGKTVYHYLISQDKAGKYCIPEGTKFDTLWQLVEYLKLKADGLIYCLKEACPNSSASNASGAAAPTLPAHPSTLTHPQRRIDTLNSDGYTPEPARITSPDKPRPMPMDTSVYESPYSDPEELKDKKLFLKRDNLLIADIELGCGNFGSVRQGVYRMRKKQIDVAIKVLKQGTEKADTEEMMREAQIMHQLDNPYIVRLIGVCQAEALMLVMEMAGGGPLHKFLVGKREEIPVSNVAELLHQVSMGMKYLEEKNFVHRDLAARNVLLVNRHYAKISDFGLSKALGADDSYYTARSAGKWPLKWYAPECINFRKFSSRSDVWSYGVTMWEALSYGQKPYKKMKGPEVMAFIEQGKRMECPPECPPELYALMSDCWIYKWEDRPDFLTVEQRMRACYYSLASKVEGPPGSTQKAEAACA
Chain of ABL2 (P42684 whole entry): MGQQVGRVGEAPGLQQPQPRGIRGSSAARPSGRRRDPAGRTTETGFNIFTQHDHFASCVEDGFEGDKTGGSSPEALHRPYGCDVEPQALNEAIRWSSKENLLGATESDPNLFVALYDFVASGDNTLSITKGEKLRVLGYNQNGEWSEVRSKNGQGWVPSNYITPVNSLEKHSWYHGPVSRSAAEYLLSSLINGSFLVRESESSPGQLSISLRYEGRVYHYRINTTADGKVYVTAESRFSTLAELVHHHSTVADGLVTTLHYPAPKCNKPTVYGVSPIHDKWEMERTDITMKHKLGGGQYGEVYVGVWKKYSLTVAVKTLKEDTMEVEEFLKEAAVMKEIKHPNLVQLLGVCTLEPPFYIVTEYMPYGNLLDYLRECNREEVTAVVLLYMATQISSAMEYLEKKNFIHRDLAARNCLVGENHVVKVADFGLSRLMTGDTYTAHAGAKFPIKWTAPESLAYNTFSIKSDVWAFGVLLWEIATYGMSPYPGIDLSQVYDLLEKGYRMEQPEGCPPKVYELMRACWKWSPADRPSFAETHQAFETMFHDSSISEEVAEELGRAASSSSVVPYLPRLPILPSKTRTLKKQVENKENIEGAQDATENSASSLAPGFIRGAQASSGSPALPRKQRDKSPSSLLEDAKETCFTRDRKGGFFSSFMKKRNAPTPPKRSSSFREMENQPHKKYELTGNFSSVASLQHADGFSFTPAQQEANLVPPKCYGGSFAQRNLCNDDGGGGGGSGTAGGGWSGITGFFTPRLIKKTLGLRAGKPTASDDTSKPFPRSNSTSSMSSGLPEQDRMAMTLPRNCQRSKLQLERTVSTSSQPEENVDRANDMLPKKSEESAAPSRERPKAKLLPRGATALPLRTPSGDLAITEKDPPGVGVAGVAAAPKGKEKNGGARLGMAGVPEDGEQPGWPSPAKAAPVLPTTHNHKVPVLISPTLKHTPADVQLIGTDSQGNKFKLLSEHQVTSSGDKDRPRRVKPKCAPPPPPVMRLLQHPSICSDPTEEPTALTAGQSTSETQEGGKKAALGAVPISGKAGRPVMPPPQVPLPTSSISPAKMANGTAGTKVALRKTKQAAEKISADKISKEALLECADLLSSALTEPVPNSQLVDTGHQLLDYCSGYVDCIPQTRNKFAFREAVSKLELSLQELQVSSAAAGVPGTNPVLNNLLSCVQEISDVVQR
Chain of SRPK3 (Q9UPE1 whole entry): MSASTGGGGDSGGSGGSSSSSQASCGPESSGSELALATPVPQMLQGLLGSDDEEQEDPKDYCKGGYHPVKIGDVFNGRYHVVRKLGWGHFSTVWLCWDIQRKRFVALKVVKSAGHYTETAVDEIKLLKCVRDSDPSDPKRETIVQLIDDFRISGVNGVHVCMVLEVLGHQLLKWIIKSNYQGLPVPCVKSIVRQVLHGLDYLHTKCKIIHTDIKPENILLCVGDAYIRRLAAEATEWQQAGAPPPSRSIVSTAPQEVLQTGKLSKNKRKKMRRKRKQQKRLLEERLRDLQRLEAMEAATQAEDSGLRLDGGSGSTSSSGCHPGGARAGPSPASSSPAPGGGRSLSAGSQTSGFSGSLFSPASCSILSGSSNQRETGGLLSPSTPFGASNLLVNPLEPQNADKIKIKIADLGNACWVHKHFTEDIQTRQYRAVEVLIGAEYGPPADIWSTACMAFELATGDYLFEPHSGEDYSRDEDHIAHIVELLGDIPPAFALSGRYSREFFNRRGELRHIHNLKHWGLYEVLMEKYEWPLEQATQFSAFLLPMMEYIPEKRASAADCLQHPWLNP
Chain of CAMK2G (Q13555 whole entry): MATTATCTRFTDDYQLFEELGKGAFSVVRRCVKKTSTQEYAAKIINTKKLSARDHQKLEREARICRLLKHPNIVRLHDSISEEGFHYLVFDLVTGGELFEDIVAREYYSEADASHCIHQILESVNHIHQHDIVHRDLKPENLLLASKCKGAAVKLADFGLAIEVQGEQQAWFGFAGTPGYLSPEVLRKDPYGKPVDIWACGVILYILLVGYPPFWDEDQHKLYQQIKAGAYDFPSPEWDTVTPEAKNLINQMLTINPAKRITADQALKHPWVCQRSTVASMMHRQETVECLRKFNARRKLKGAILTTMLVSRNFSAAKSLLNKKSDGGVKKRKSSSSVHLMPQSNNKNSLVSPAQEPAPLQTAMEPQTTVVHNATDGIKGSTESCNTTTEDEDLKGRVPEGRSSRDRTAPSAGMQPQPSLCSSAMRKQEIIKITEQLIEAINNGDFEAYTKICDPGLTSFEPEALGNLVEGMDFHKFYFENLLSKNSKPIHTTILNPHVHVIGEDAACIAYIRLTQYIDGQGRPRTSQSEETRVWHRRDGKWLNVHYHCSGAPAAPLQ
Chain of MLK3 (Q16584 whole entry): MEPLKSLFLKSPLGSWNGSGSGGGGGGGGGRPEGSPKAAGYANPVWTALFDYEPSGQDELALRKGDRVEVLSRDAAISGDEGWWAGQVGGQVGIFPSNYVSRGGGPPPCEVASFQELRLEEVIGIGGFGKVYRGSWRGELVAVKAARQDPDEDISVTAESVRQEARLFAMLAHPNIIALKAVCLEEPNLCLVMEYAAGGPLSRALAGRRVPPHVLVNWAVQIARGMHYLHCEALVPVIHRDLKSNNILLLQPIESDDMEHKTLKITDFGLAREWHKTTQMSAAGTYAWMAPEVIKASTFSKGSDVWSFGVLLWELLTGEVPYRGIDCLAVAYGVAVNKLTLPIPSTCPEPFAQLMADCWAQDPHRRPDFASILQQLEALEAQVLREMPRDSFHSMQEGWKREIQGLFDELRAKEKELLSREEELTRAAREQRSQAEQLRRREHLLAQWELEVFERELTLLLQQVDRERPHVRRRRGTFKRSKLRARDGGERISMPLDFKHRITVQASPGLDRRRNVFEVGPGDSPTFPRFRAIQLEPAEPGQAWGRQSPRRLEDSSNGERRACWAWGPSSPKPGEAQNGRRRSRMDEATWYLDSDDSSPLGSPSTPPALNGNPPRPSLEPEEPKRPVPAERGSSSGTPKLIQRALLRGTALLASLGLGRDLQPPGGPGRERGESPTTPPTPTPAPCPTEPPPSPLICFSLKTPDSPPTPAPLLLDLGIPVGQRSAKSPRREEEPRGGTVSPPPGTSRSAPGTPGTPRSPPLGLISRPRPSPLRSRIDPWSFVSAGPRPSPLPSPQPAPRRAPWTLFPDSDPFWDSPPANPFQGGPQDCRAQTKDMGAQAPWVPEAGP

`Nc1ncc(-c2nc3ccccc3o2)c(-c2ccncc2)n1` [Comparative Compound 324, 5-(1,3-benzoxazol-2-yl)-4-(pyridine-4-yl)pyrimidin-2-amine] was tested, and the remaining binding at 10 µM [1] was 90%, the remaining binding at 10 µM [2] was 71% and the remaining binding at 10 µM [3] was 100%. The remaining binding at 10 µM [4] was 52%, the remaining binding at 10 µM [5] was 85% and the remaining binding at 10 µM [6] was 100%. The remaining binding at 10 µM [7] was 98%, the remaining binding at 10 µM [8] was 100% and the remaining binding at 10 µM [9] was 100%. For the same molecule, the remaining binding at 10 µM [10] was 99%, the remaining binding at 10 µM [11] was 84% and the remaining binding at 10 µM [12] was 98%. The remaining binding at 10 µM [13] was 100%, the remaining binding at 10 µM [14] was 89% and the remaining binding at 10 µM [15] was 78%. For the same molecule, the remaining binding at 10 µM [16] was 93%, the remaining binding at 10 µM [17] was 100% and the remaining binding at 10 µM [18] was 70%. It also gave a remaining binding at 10 µM [19] of 98%, a remaining binding at 10 µM [20] of 99% and a remaining binding at 10 µM [21] of 86%. The remaining binding at 10 µM [22] was 44%, the remaining binding at 10 µM [23] was 56% and the remaining binding at 10 µM [24] was 100%. The remaining binding at 10 µM [25] was 100%, the remaining binding at 10 µM [26] was 99% and the remaining binding at 10 µM [27] was 88%. It also gave a remaining binding at 10 µM [28] of 100%, a remaining binding at 10 µM [29] of 100% and a remaining binding at 10 µM [30] of 86%. It also gave a remaining binding at 10 µM [31] of 100%, a remaining binding at 10 µM [32] of 100% and a remaining binding at 10 µM [33] of 100%. For the same molecule, the remaining binding at 10 µM [34] was 79%, the remaining binding at 10 µM [35] was 83% and the remaining binding at 10 µM [36] was 64%. The remaining binding at 10 µM [37] was 78%, the remaining binding at 10 µM [38] was 99% and the remaining binding at 10 µM [39] was 85%. It also gave a remaining binding at 10 µM [40] of 100% and a remaining binding at 10 µM [41] of 100%.

Work on `CNc1c(C(N)=O)c2ccccn2c1C(=O)c1ccc(F)cc1` [Compound A, 2-methyl-amino-3-[(4-fluorophenyl)carbonyl]indolizine-1-carboxamide] yielded a remaining binding at 10 µM [1] of 82%, a remaining binding at 10 µM [2] of 96% and a remaining binding at 10 µM [3] of 49%. The remaining binding at 10 µM [4] was 72%, the remaining binding at 10 µM [5] was 68% and the remaining binding at 10 µM [6] was 81%. It also gave a remaining binding at 10 µM [7] of 92%, a remaining binding at 10 µM [8] of 87% and a remaining binding at 10 µM [9] of 95%. It also gave a remaining binding at 10 µM [10] of 55%, a remaining binding at 10 µM [11] of 18% and a remaining binding at 10 µM [12] of 99%. The remaining binding at 10 µM [13] was 100%, the remaining binding at 10 µM [14] was 100% and the remaining binding at 10 µM [15] was 50%. The remaining binding at 10 µM [16] was 88%, the remaining binding at 10 µM [17] was 100% and the remaining binding at 10 µM [18] was 56%. The remaining binding at 10 µM [19] was 66%, the remaining binding at 10 µM [20] was 92% and the remaining binding at 10 µM [21] was 68%. For the same molecule, the remaining binding at 10 µM [22] was 44%, the remaining binding at 10 µM [23] was 100% and the remaining binding at 10 µM [24] was 98%. The remaining binding at 10 µM [25] was 54%, the remaining binding at 10 µM [26] was 92% and the remaining binding at 10 µM [27] was 73%. The remaining binding at 10 µM [28] was 88%, the remaining binding at 10 µM [29] was 59% and the remaining binding at 10 µM [30] was 78%. It also gave a remaining binding at 10 µM [31] of 88%, a remaining binding at 10 µM [32] of 100% and a remaining binding at 10 µM [33] of 100%. It also gave a remaining binding at 10 µM [34] of 16%, a remaining binding at 10 µM [35] of 83% and a remaining binding at 10 µM [36] of 49%. For the same molecule, the remaining binding at 10 µM [37] was 93%, the remaining binding at 10 µM [38] was 100% and the remaining binding at 10 µM [39] was 81%. It also gave a remaining binding at 10 µM [40] of 100% and a remaining binding at 10 µM [41] of 100%.
